Earlier results on 2 compounds are cited in US5221745A, “Psychotropic piperidinylmethyl benzodioxans” (American Home Products Corp., priority 1992, dated 1993).

One data set concerns 5-HT1A receptor. Conditions: Fozard et al. 1987.
The target of data set [1] is T1, serotonin 5-HT1A receptor (Rattus norvegicus, UniProt P19327).
T1 construct: following the procedure of Hall et al., J. Neurochem; 44, 1685 (1985); from tissue
T1 sequence (P19327 1-422): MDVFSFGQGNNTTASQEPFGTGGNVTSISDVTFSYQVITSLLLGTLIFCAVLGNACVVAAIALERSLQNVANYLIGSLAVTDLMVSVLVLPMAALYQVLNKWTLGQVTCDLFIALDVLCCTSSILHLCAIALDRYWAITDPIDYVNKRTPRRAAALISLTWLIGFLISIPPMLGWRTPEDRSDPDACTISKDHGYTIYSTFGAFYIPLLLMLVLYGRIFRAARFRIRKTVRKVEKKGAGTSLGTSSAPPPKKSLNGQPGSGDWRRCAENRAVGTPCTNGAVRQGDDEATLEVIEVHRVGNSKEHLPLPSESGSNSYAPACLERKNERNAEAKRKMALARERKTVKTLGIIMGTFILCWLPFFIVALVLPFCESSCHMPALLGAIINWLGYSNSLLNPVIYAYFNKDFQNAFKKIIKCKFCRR
Conditions: standard for anxiolytic activity.

In the case of `O=C1CC2(CCCC2)CC(=O)N1CCCCNCC1COc2ccccc2O1` (centres unmarked) [MDL 72832, 8-[4-(1,4-benzodioxan-2-ylmethylamino)butyl]-8-azaspiro[4.5]decane-7,9-dione], the “ligand character for 5-HT1A receptors (in words)” value with 5-HT1A receptor is “selective and stereospecific”.

As for `O=C1CC2(CCCC2)CC(=O)N1CCCCN1CCN(c2ncccn2)CC1` [buspirone], in data set [1], the “affinity for the 5-HT1A serotonin receptor subtype (in words)” value is recorded as “potent affinity”.
